Laboratory results as given in patent publication US8889874B2, “Imidazolone-chalcone derivatives as potential anticancer agent and process for the preparation thereof” (Council of Scientific and Industrial Research, priority 2010, dated 2014).
Read-outs that look alike come from different tables or passages of the source.

Experiments:
Format in all cases: cell-based, human
[1] = tested on: Non-small cell lung cancer cell lines; assay: NCI anticancer screen, SRB assay, panel summary; conditions: Homo sapiens
Experimental: (§1) Some of biological activity studies were carried out at the National Cancer Institute (NCI), Maryland, USA.
(§2) The compounds were evaluated for anticancer activity against fifty three human cancer cells derived from nine cancer types (leukemia cell line, non-small-cell lung cell line, colon cell line, CNS cell line, melanoma cell line, ovarian cell line, prostate cell line, and breast cancer cell line) as shown in Table 1. For each compound, dose response curves for each cell line were measured at a minimum of five concentrations at 10 fold dilutions. A protocol of 48 h continuous drug exposure was used and a sulforhodamine B (SRB) protein assay was used to estimate cell viability or growth.

[2] = tested on: CNS cancer cell lines; assay: NCI anticancer screen, SRB assay, panel summary; conditions: for GI50: Homo sapiens
Experimental: as §1, §2

[3] = tested on: Renal cancer cell lines; assay: NCI anticancer screen, SRB assay, panel summary; conditions: Homo sapiens
Experimental: as §1, §2

[4] = tested on: Colon cancer cell lines; assay: NCI anticancer screen, SRB assay, panel summary; conditions: for GI50: Homo sapiens
Experimental: as §1, §2

[5] = tested on: Ovarian cancer cell lines; assay: NCI anticancer screen, SRB assay, panel summary; conditions: Homo sapiens
Experimental: as §1, §2

[6] = tested on: Melanoma cancer cell lines; assay: NCI anticancer screen, SRB assay, panel summary; conditions: for GI50: Homo sapiens
Experimental: as §1, §2

[7] = tested on: Prostate cancer cell lines; assay: NCI anticancer screen, SRB assay, panel summary
Experimental: as §1, §2

[8] = tested on: Breast cancer cell lines; assay: NCI anticancer screen, SRB assay, panel summary; conditions: Homo sapiens
Experimental: as §1, §2

[9] = tested on: Leukemia cancer cell lines; assay: NCI anticancer screen, SRB assay, panel summary; conditions: Homo sapiens
Experimental: as §1, §2

[10] = tested on: A549/ATCC (non-small cell lung); assay: NCI anticancer screen, SRB assay, 48 h; conditions: Homo sapiens
Experimental: as §1, §2

[11] = tested on: NCI-H460 (non-small cell lung); assay: NCI anticancer screen, SRB assay, 48 h; conditions: Homo sapiens
Experimental: as §1, §2

[12] = tested on: HS 578T (breast); assay: NCI anticancer screen, SRB assay, 48 h; conditions: Homo sapiens
Experimental: as §1, §2

[13] = tested on: EKVX (non-small cell lung); assay: NCI anticancer screen, SRB assay, 48 h; conditions: Homo sapiens
Experimental: as §1, §2

[14] = tested on: ACHN (renal); assay: NCI anticancer screen, SRB assay, 48 h; conditions: Homo sapiens
Experimental: as §1, §2

[15] = tested on: SN12C (renal); assay: NCI anticancer screen, SRB assay, 48 h; conditions: Homo sapiens, SN12C
Experimental: as §1, §2

[16] = tested on: SK-OV-3 (ovarian); assay: NCI anticancer screen, SRB assay, 48 h; conditions: Homo sapiens
Experimental: as §1, §2

[17] = tested on: NCI-H226 (non-small cell lung); assay: NCI anticancer screen, SRB assay, 48 h; conditions: Homo sapiens
Experimental: as §1, §2

[18] = tested on: 786-0 (renal); assay: NCI anticancer screen, SRB assay, 48 h; conditions: Homo sapiens
Experimental: as §1, §2

[19] = tested on: OVCAR-8 (ovarian); assay: NCI anticancer screen, SRB assay, 48 h; conditions: Homo sapiens
Experimental: as §1, §2

[20] = tested on: UACC-257 (melanoma); assay: NCI anticancer screen, SRB assay, 48 h; conditions: Homo sapiens
Experimental: as §1, §2

[21] = tested on: KM12 (colon); assay: NCI anticancer screen, SRB assay, 48 h; conditions: Homo sapiens
Experimental: as §1, §2

[22] = tested on: SK-MEL-5 (melanoma); assay: NCI anticancer screen, SRB assay, 48 h; conditions: Homo sapiens
Experimental: as §1, §2

[23] = tested on: SK-MEL-28 (melanoma); assay: NCI anticancer screen, SRB assay, 48 h; conditions: Homo sapiens
Experimental: as §1, §2

[24] = tested on: SW-620 (colon); assay: NCI anticancer screen, SRB assay, 48 h; conditions: Homo sapiens
Experimental: as §1, §2

[25] = tested on: K-562 (leukemia cell line); assay: NCI anticancer screen, SRB assay, 48 h; conditions: Homo sapiens
Experimental: as §1, §2

[26] = tested on: SF-539 (CNS); assay: NCI anticancer screen, SRB assay, 48 h; conditions: Homo sapiens
Experimental: as §1, §2

[27] = tested on: NCI-H23 (non-small cell lung); assay: NCI anticancer screen, SRB assay, 48 h; conditions: Homo sapiens
Experimental: as §1, §2

[28] = tested on: CAKI-1 (renal); assay: NCI anticancer screen, SRB assay, 48 h; conditions: Homo sapiens
Experimental: as §1, §2

[29] = tested on: TD-47D (breast); assay: NCI anticancer screen, SRB assay, 48 h; conditions: Homo sapiens
Experimental: as §1, §2

[30] = tested on: MALME-3M (melanoma); assay: NCI anticancer screen, SRB assay, 48 h; conditions: Homo sapiens
Experimental: as §1, §2

[31] = tested on: SNB-19 (CNS); assay: NCI anticancer screen, SRB assay, 48 h; conditions: Homo sapiens
Experimental: as §1, §2

[32] = tested on: HOP-92 (non-small cell lung); assay: NCI anticancer screen, SRB assay, 48 h; conditions: Homo sapiens
Experimental: as §1, §2

[33] = 48 h exposure, SRB, read-out: GI50
[34] = read-out: pGI50 (-log of molar concentration causing 50% inhibition of net cell growth) (converted)

Structure (SMILES): O=C(/C=C/c1cccc(O)c1)c1cccc(-n2cc(-c3ccc4ccccc4c3)[nH]c2=O)c1 [12b, 1-3-[(E)-3-(3-hydroxyphenyl)-2-propenoyl]phenyl-4-(2-naphthyl)-2,3-dihydro-1H-2-imidazolone]
- GI50 ([1]; Non-small cell lung panel, log of concentration in mol/L causing 50% inhibition of net cell growth, read-out: mean graph midpoint (MG_MID) of Log10 GI50 (converted)): 1740 nM
- LC50 ([1]; Non-small cell lung panel, log of concentration leading to 50% net cell death, read-out: mean graph midpoint (MG_MID) of Log10 LC50 (converted)): 20000 nM
- GI50 ([1]; nine non-small cell lung cancer cell lines, exposure at least 48 hrs, read-out: GI50, range over the panel): 510 to 3380 nM
- mean graph midpoint (MG_MID) of Log10 LC50 ([2]; CNS panel, log of concentration leading to 50% net cell death): 5.04
- GI50 ([2]; CNS panel, log of concentration in mol/L causing 50% inhibition of net cell growth, read-out: mean graph midpoint (MG_MID) of Log10 GI50 (converted)): 1480 nM
- GI50 ([2]; six CNS cancer cell lines, exposure at least 48 hrs, read-out: GI50, range over the panel): 1090 to 1880 nM
- GI50 ([3]; Renal panel, log of concentration in mol/L causing 50% inhibition of net cell growth, read-out: mean graph midpoint (MG_MID) of Log10 GI50 (converted)): 8910 nM
- LC50 ([3]; Renal panel, log of concentration leading to 50% net cell death, read-out: mean graph midpoint (MG_MID) of Log10 LC50 (converted)): 10200 nM
- GI50 ([3]; eight renal cancer cell lines, exposure at least 48 hrs, read-out: GI50, range over the panel): 1260 to 3450 nM
- mean graph midpoint (MG_MID) of Log10 LC50 ([4]; Colon panel, log of concentration leading to 50% net cell death): 5.08
- GI50 ([4]; Colon panel, log of concentration in mol/L causing 50% inhibition of net cell growth, read-out: mean graph midpoint (MG_MID) of Log10 GI50 (converted)): 1020 nM
- GI50 ([4]; seven colon cancer cell lines, exposure at least 48 hrs, read-out: GI50, range over the panel): 220 to 2130 nM
- GI50 ([5]; Ovarian panel, log of concentration in mol/L causing 50% inhibition of net cell growth, read-out: mean graph midpoint (MG_MID) of Log10 GI50 (converted)): 1820 nM
- LC50 ([5]; Ovarian panel, log of concentration leading to 50% net cell death, read-out: mean graph midpoint (MG_MID) of Log10 LC50 (converted)): 25700 nM
- GI50 ([5]; six ovarian cancer cell lines, exposure at least 48 hrs, read-out: GI50, range over the panel): 1330 to 2330 nM
- GI50 ([6]; Melanoma panel, log of concentration in mol/L causing 50% inhibition of net cell growth, read-out: mean graph midpoint (MG_MID) of Log10 GI50 (converted)): 1950 nM
- GI50 ([6]; nine melanoma cancer cell lines, exposure at least 48 hrs, read-out: GI50, range over the panel): 850 to 4130 nM
- mean graph midpoint (MG_MID) of Log10 LC50 ([6]; Melanoma panel, log of concentration leading to 50% net cell death): 4.62
- GI50 ([7]; Homo sapiens, log of concentration in mol/L causing 50% inhibition of net cell growth, read-out: mean graph midpoint (MG_MID) of Log10 GI50 (converted)): 1860 nM
- LC50 ([7]; Homo sapiens, log of concentration leading to 50% net cell death, read-out: mean graph midpoint (MG_MID) of Log10 LC50 (converted)): 79400 nM
- mean graph midpoint (MG_MID) of Log10 TGI ([7]; log of concentration resulting in total inhibition of net cell growth): 5.10
- GI50 ([8]; Breast panel, log of concentration in mol/L causing 50% inhibition of net cell growth, read-out: mean graph midpoint (MG_MID) of Log10 GI50 (converted)): 1290 nM
- LC50 ([8]; Breast panel, log of concentration leading to 50% net cell death, read-out: mean graph midpoint (MG_MID) of Log10 LC50 (converted)): 31600 nM
- GI50 ([8]; five breast cancer cell lines, exposure at least 48 hrs, read-out: GI50, range over the panel): 470 to 2010 nM
- GI50 ([9]; Leukemia panel, log of concentration in mol/L causing 50% inhibition of net cell growth, read-out: mean graph midpoint (MG_MID) of Log10 GI50 (converted)): 1550 nM
- LC50 ([9]; Leukemia panel, log of concentration leading to 50% net cell death, read-out: mean graph midpoint (MG_MID) of Log10 LC50 (converted)): ≥ 100000 nM
- GI50 ([9]; two leukemia cancer cell lines (RPMI-8226 and K-562), exposure at least 48 hrs, read-out: GI50, range over the panel): 1430 to 1670 nM
- GI50 [10, 33]: 3380 nM
- GI50 [10, 34]: 3390 nM
- GI50 [11, 33]: 1670 nM
- GI50 [11, 34]: 1660 nM
- GI50 [12, 33]: 2010 nM
- GI50 [12, 34]: 2000 nM
- GI50 [13, 33]: 2640 nM
- GI50 [13, 34]: 2630 nM
- GI50 [14, 33]: 1570 nM
- GI50 [14, 34]: 1580 nM
- GI50 ([15]; SN 12C, read-out: pGI50 (-log of molar concentration causing 50% inhibition of net cell growth) (converted)): 1450 nM
- GI50 [15, 33]: 1440 nM
- GI50 [16, 33]: 2150 nM
- GI50 [16, 34]: 2140 nM
- GI50 [17, 33]: 2430 nM
- GI50 [17, 34]: 2450 nM
- GI50 [18, 33]: 1740 nM
- GI50 [18, 34]: 1740 nM
- GI50 [19, 33]: 2330 nM
- GI50 [19, 34]: 2340 nM
- GI50 [20, 33]: 4130 nM
- GI50 [20, 34]: 4170 nM
- GI50 [21, 33]: 1210 nM
- GI50 [21, 34]: 1200 nM
- GI50 [22, 33]: 1160 nM
- GI50 [22, 34]: 1150 nM
- GI50 [23, 33]: 3790 nM
- GI50 [23, 34]: 3800 nM
- GI50 [24, 33]: 220 nM
- GI50 [24, 34]: 219 nM
- GI50 ([25]; K562, 48 h exposure, SRB, read-out: GI50): 1430 nM
- GI50 ([25]; K562, read-out: pGI50 (-log of molar concentration causing 50% inhibition of net cell growth) (converted)): 1450 nM
- GI50 [26, 33]: 1550 nM
- GI50 [26, 34]: 1550 nM
- GI50 [27, 33]: 1520 nM
- GI50 [27, 34]: 1510 nM
- GI50 [28, 33]: 1450 nM
- GI50 [28, 34]: 1450 nM
- GI50 [29, 33]: 1110 nM
- GI50 [29, 34]: 1120 nM
- GI50 ([30]; Malme-3M, read-out: pGI50 (-log of molar concentration causing 50% inhibition of net cell growth) (converted)): 2090 nM
- GI50 ([30]; MALME-3M, 48 h exposure, SRB, read-out: GI50): 2080 nM
- GI50 [31, 33]: 1320 nM
- GI50 [31, 34]: 1320 nM
- GI50 [32, 33]: 510 nM
- GI50 [32, 34]: 513 nM
